Results published in patent publication US20240025906A1 (NEURON23, INC., priority 2022, published 2024).
Where two headings read alike, the source gives them in different places.

Tests used:
TYK2 JH2 = target: T1, TYK2 JH2 (Homo sapiens, UniProt P29597); assay: TYK2 JH2 binding assay (KINOMEscan KdELECT competitive binding); conditions: TYK2 JH2 domain
T1 construct: purchased DiscoverX (KINOMEscan KdELECT service); host or cells: E. coli BL21-derived (T7 phage display) or HEK-293
Procedure, shortened: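 Kd values come from qPCR measurement of kinase retained on an immobilized-ligand resin after 1 h room-temperature competition with compound in an 11-point, 3-fold series.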

[1] = tested on: JAK1/TYK2 pSTAT5 (Tyr694/699) in THP-1 cell line; assay: IFNa-stimulated JAK1/TYK2 pSTAT5 (Tyr694/699) inhibition cellular assay, AlphaLISA; type: cell-based; conditions: Homo sapiens, THP-1 cells, AlphaLISA (Assay B)
Procedure, shortened: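 THP-1 cells (2e4/well in HBSS) were preincubated with compound (8 points, 6-fold steps from 10000 nM final) for 1 h at 37 °C, then stimulated with IFNa (added at 100 ng/mL) for 30 min. Lysate pSTAT5 was read by AlphaLISA at 615 nm. IC50 came from a 4-parameter fit with bottom 0 and Hill −1.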

[2] = KINOMEscan KdELECT (Assay A), read-out: Biochemical TYK2_DiscoverX_JH2_BND_Kd
[3] = IFNa-stimulated, read-out: Cellular_THP1_IFNa-pSTATS_TYK2
[4] = IFNa-stimulated pSTAT5 (Tyr694/699), read-out: Cellular_THP1_IFNa-pSTATS_TYK2
[5] = DiscoverX KINOMEscan KdELECT (Assay A), read-out: Biochemical TYK2_DiscoverX_JH2_BND_Kd
[6] = KINOMEscan KdELECT (Assay A), read-out: Biochemical TYK2_JH2_Kd
[7] = IFNa-stimulated, read-out: Cellular THP1_IFNa-pSTATS_IC50

T1 sequence (P29597 589-875 limits assumed): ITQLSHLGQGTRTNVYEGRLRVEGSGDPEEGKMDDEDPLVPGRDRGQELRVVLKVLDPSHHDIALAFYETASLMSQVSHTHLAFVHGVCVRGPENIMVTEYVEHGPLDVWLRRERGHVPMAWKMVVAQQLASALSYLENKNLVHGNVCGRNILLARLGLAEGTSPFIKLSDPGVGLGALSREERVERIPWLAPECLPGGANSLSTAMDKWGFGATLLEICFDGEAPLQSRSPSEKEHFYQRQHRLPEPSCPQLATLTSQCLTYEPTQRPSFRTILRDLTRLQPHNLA

| SMILES | Kd (TYK2 JH2; [2]) [µM] | IC50 [1, 3] [µM] | other results |
| --- | --- | --- | --- |
| CNc1ncc(-c2nc3cc(OC)ccc3o2)c2cc(NC(=O)[C@@H]3C[C@H]3C)ncc12 [Example 1061, (1R,2R)-N-(5-(5-methoxybenzo[d]oxazol-2-yl)-8-(methylamino)-2,7-naphthyridin-3-yl)-2-methylcyclopropane-1-carboxamide] | ≤ 0.1 |  | IC50 [1, 4]: ≤ 0.5 µM |
| CNc1ncc(-c2nc3ccc(N4CCOCC4)cn3n2)c2cc(NC(=O)[C@H]3CC3(F)F)ncc12 (single isomer, unassigned) [Example 1141] | ≤ 0.1 |  | IC50 [1, 4]: ≤ 0.5 µM |
| CNc1ncc(-c2ccc(S(C)(=O)=O)cc2)c2cc(NC(=O)C3CC3)ncc12 [Example 46, N-(8-(methylamino)-5-(4-(methylsulfonyl)phenyl)-2,7-naphthyridin-3-yl)cyclopropanecarboxamide] |  |  | Kd (TYK2 JH2; [6]): ≤ 0.1 µM; IC50 [1, 7]: > 0.5 µM |
| CNc1ncc(-c2nc3ccc(Cl)cc3o2)c2cc(NC(=O)C3CC3)ncc12 [Example 219, N-(5-(6-chlorobenzo[d]oxazol-2-yl)-8-(methylamino)-2,7-naphthyridin-3-yl)cyclopropanecarboxamide] |  | ≤ 0.5 | Kd (TYK2 JH2; [5]): ≤ 0.1 µM |
| CNc1ncc(-c2nc3ccc(N4CCO[C@H](C)C4)cn3n2)c2cc(NC(=O)[C@@H]3C[C@@H]3C)ncc12 [Example 546, (1R,2S)-2-methyl 1N-(8-(methylamino)-5-(6-((R)-2-methylmorpholino)-[1,2,4]triazolo[1,5-a]pyridin-2-yl)-2,7-naphthyridin-3-yl)cyclopropane-1-carboxamide] |  | ≤ 0.5 | Kd (TYK2 JH2; [5]): ≤ 0.1 µM |
| C=C(c1ccc(OCC(C)(C)O)cc1)c1cnc(NC)c2cnc(NC(=O)C3CC3)cc12 [Example 785, N-(5-(1-(4-(2-hydroxy-2-methylpropoxy)phenyl)vinyl)-8-(methylamino)-2,7-naphthyridin-3-yl)cyclopropanecarboxamide] | ≤ 0.1 | > 0.5 |  |
| CNc1ncc(C#Cc2cn3c(n2)CCCC3)c2cc(NC(=O)C3CC3)ncc12 [Example 899, N-(8-(methylamino)-5-((5,6,7,8-tetrahydroimidazo[1,2-a]pyridin-2-yl)ethynyl)-2,7-naphthyridin-3-yl)cyclopropanecarboxamide] | ≤ 0.1 | ≤ 0.5 |  |
| CNc1ncc(-c2nc(C)co2)c2cc(NC(=O)C3CC3)ncc12 [Example 32, N-(8-(methylamino)-5-(4-methyloxazol-2-yl)-2,7-naphthyridin-3-yl)cyclopropanecarboxamide] |  |  | Kd (TYK2 JH2; [6]): ≤ 0.1 µM; IC50 [1, 7]: ≤ 0.5 µM |
| CNc1ncc(C#Cc2cc3ccccn3n2)c2cc(NC(=O)[C@H]3C[C@H]3C(F)F)ncc12 (single isomer, unassigned) [Example 755] | ≤ 0.1 | ≤ 0.5 |  |
| CNc1ncc(C#Cc2ccc(OC[C@@H](C)OC)cc2)c2cc(NC(=O)C3CC3)ncc12 [Example 703, (R)—N-(5-((4-(2-methoxypropoxy)phenyl)ethynyl)-8-(methylamino)-2,7-naphthyridin-3-yl)cyclopropanecarboxamide] | ≤ 0.1 | ≤ 0.5 |  |
| CNc1ncc(C#Cc2ccc3c(cnn3C(F)F)c2)c2cc(NC(=O)C3CC3)ncc12 [Example 723, N-(5-((1-(difluoromethyl)-1H-indazol-5-yl)ethynyl)-8-(methylamino)-2,7-naphthyridin-3-yl)cyclopropanecarboxamide] | ≤ 0.1 | ≤ 0.5 |  |
| CNc1ncc(-c2nc3cc(C(=O)NC4CC4)ccc3o2)c2cc(NC(=O)C3CC3)ncc12 [Example 1099, 2-(6-(cyclopropanecarboxamido)-1-(methylamino)-2,7-naphthyridin-4-yl)-N-cyclopropylbenzo[d]oxazole-5-carboxamide] | ≤ 0.1 |  | IC50 [1, 4]: ≤ 0.5 µM |
| CNc1ncc(C#Cc2ccc(OC3CN(S(C)(=O)=O)C3)cc2)c2cc(NC(=O)C3CC3)ncc12 [Example 715, N-(8-(methylamino)-5-((4-((1-(methylsulfonyl)azetidin-3-yl)oxy)phenyl)ethynyl)-2,7-naphthyridin-3-yl)cyclopropanecarboxamide] | ≤ 0.1 | ≤ 0.5 |  |
| CNc1ncc(-c2nc3c(F)cccc3o2)c2cc(NC(=O)C3CC3)ncc12 [Example 184, N-(5-(4-fluorobenzo[d]oxazol-2-yl)-8-(methylamino)-2,7-naphthyridin-3-yl)cyclopropanecarboxamide] |  |  | Kd (TYK2 JH2; [6]): ≤ 0.1 µM; IC50 [1, 7]: ≤ 0.5 µM |
| CNc1ncc(-c2nc3cc(O[C@H](C)COC)ccc3o2)c2cc(NC(=O)C3CC3)ncc12 [Example 351, (R)—N-(5-(5-((1-methoxypropan-2-yl)oxy)benzo[d]oxazol-2-yl)-8-(methylamino)-2,7-naphthyridin-3-yl)cyclopropanecarboxamide] |  | ≤ 0.5 | Kd (TYK2 JH2; [5]): ≤ 0.1 µM |
| CNc1ncc(-c2nc3ccc(N4CCOCC4)cc3o2)c2cc(NC(=O)C3CC3)nnc12 [Example 913, N-(8-(methylamino)-5-(6-morpholinobenzo[d]oxazol-2-yl)pyrido[3,4-c]pyridazin-3-yl)cyclopropanecarboxamide] | ≤ 0.1 | ≤ 0.5 |  |

Continued, in another order:

| Kd (TYK2 JH2; [2]) [µM] | IC50 [1, 3] [µM] | SMILES | other results |
| --- | --- | --- | --- |
| ≤ 0.1 | ≤ 0.5 | CNc1ncc(C#Cc2sccc2CO)c2cc(NC(=O)C3CC3)ncc12 [Example 960, N-(5-((3-(hydroxymethyl)thiophen-2-yl)ethynyl)-8-(methylamino)-2,7-naphthyridin-3-yl)cyclopropanecarboxamide] |  |
|  | ≤ 0.5 | CNc1ncc(-c2nc3ccc(N4CC5CN(C)CC(C4)O5)cn3n2)c2cc(NC(=O)C3(F)CC3)ncc12 [Example 559, 1-fluoro-N-(5-(6-(7-methyl-9-oxa-3,7-diazabicyclo[3.3.1]nonan-3-yl)-[1,2,4]triazolo[1,5-a]pyridin-2-yl)-8-(methylamino)-2,7-naphthyridin-3-yl)cyclopropane-1-carboxamide] | Kd (TYK2 JH2; [5]): ≤ 0.1 µM |
| ≤ 0.1 | ≤ 0.5 | CNc1ncc(C#Cc2ccc(C(C)=O)c(O)c2)c2cc(NC(=O)C3CC3)ncc12 [Example 749, N-(5-((4-acetyl-3-hydroxyphenyl)ethynyl)-8-(methylamino)-2,7-naphthyridin-3-yl)cyclopropanecarboxamide] |  |
| ≤ 0.1 |  | CNc1ncc(C#Cc2nccc3ncsc23)c2cc(NC(=O)C3CC3)ncc12 [Example 1016, N-(8-(methylamino)-5-(thiazolo[5,4-c]pyridin-4-ylethynyl)-2,7-naphthyridin-3-yl)cyclopropanecarboxamide] | IC50 [1, 4]: ≤ 0.5 µM |
| ≤ 0.1 | ≤ 0.5 | CNc1ncc(-c2cn3cc(OC)ccc3n2)c2cc(NC(=O)C3CC3)ncc12 [Example 879, N-(5-(6-methoxyimidazo[1,2-a]pyridin-2-yl)-8-(methylamino)-2,7-naphthyridin-3-yl)cyclopropanecarboxamide] |  |
| ≤ 0.1 |  | CNc1ncc(-c2nc3ccc(N4CCOC(C(C)(C)F)C4)cn3n2)c2cc(NC(=O)C3CC3)ncc12 (stereo not drawn) [Example 1048] | IC50 [1, 4]: ≤ 0.5 µM |
| ≤ 0.1 | ≤ 0.5 | CNc1ncc(C#Cc2ccc3nc4n(c3c2)CCC(F)=C4)c2cc(NC(=O)C3CC3)ncc12 [Example 809, N-(5-((3-fluoro-1,2-dihydrobenzo[4,5]imidazo[1,2-a]pyridin-8-yl)ethynyl)-8-(methylamino)-2,7-naphthyridin-3-yl)cyclopropanecarboxamide] |  |
| ≤ 0.1 | ≤ 0.5 | CNc1ncc(C#Cc2cnco2)c2cc(NC(=O)C3CC3)ncc12 [Example 600, N-(8-(methylamino)-5-(oxazol-5-ylethynyl)-2,7-naphthyridin-3-yl)cyclopropanecarboxamide] |  |
